Earlier results, collected in patent US20050148519A1, “Salts of pharmacologically active compounds” (priority 2003, published 2005).

Experiments:
[1] = for Injection site reaction: intramuscular or subcutaneous for flunixin, route not given for the others
[2] = dog, oral 2.2, 6.6 and 11.0 mg/kg

Row | Time flunixin is present in tissues at a pharmaceutically effective amount (injection in a conventional format) | Flunixin serum concentration immediately following administration (single dose 1.1 mg/kg) | Flunixin serum concentration within 4 hours of administration (single dose 1.1 mg/kg) | Time post administration to undetectable flunixin serum levels (single dose 1.1 mg/kg) | Time for injection site reactions to dissipate ([1]; in vivo) | SMILES | Injection site reaction [1] | Side effects following oral dosing [2]
1 | – | – | – | – | – | CN(C)[C@@H]1C(O)=C(C(N)=O)C(=O)[C@@]2(O)C(O)=C3C(=O)c4c(O)cccc4[C@@](C)(O)[C@H]3[C@H](O)[C@@H]12 [Oxytetracyclines, oxytetracycline] | severe injection site inflammations and even necrosis | –
2 | 6 to 12 h | 8 to 13 µg/mL | sub micro gram/mL | 6 to 12 h | – | Cc1c(Nc2ncccc2C(=O)O)cccc1C(F)(F)F [flunixin] | can cause tissue damage | vomiting, diarrhea, blood in stools, and gastro-intestinal ulceration were common
3 | – | – | – | – | two to three days | CC[C@H]1OC(=O)C[C@@H](O)[C@H](C)[C@@H](O[C@@H]2O[C@H](C)[C@@H](O)[C@H](N(C)C)[C@H]2O)[C@@H](CCN2C[C@H](C)C[C@H](C)C2)C[C@@H](C)C(=O)/C=C/C(C)=C/[C@@H]1CO[C@@H]1O[C@H](C)[C@@H](O)[C@@H](OC)[C@H]1OC [tilmicosin] | mild injection site reactions | –
